# Results taken from the supplement of paper PMC10307832.
# Tests used:
# Assay in all cases: relative viability (nuclei count vs DMSO), 5 days (fraction); higher = more cells survive
# Bexarotene + Dasatinib = compound: C=C(c1ccc(C(=O)O)cc1)c1cc2c(cc1C)C(C)(C)CCC2(C)C [Bexarotene] + Cc1nc(Nc2ncc(C(=O)Nc3c(C)cccc3Cl)s2)cc(N2CCN(CCO)CC2)n1 [Dasatinib] (partner 0.075 µM)
# Method in brief: (§1)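 Dosing by pin tool came one day after lung cancer cell lines were seeded in 1536-well plates, using either one drug or a fixed anchor-drug dose plus five library-drug doses (not always all listed) in √10 steps. After 5 days, nuclei were counted on 4× images. Relative viability is treated-well nuclei count divided by vehicle-well nuclei count, and values are medians of duplicate plates.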
# Bexarotene + Foretinib = compound: C=C(c1ccc(C(=O)O)cc1)c1cc2c(cc1C)C(C)(C)CCC2(C)C [Bexarotene] + COc1cc2c(Oc3ccc(NC(=O)C4(C(=O)Nc5ccc(F)cc5)CC4)cc3F)ccnc2cc1OCCCN1CCOCC1 [Foretinib] (partner 0.25 µM)
# Method in brief: as §1
# Bexarotene + Luminespib = compound: C=C(c1ccc(C(=O)O)cc1)c1cc2c(cc1C)C(C)(C)CCC2(C)C [Bexarotene] + CCNC(=O)c1noc(-c2cc(C(C)C)c(O)cc2O)c1-c1ccc(CN2CCOCC2)cc1 [Luminespib] (partner 0.01 µM)
# Method in brief: as §1
# Bexarotene + Decitabine = compound: C=C(c1ccc(C(=O)O)cc1)c1cc2c(cc1C)C(C)(C)CCC2(C)C [Bexarotene] + Nc1ncn([C@H]2C[C@H](O)[C@@H](CO)O2)c(=O)n1 [Decitabine] (partner 2 µM)
# Method in brief: as §1
Cell Line,relative viability (Bexarotene + Dasatinib; first compound 0.08 µM),relative viability (Bexarotene + Dasatinib; first compound 0.253 µM),relative viability (Bexarotene + Dasatinib; first compound 0.8 µM),relative viability (Bexarotene + Dasatinib; first compound 2.53 µM),relative viability (Bexarotene + Dasatinib; first compound 8 µM),relative viability (Bexarotene + Foretinib; first compound 0.08 µM),relative viability (Bexarotene + Foretinib; first compound 0.253 µM),relative viability (Bexarotene + Foretinib; first compound 0.8 µM),relative viability (Bexarotene + Foretinib; first compound 2.53 µM),relative viability (Bexarotene + Foretinib; first compound 8 µM),relative viability (Bexarotene + Luminespib; first compound 0.08 µM),relative viability (Bexarotene + Luminespib; first compound 0.253 µM),relative viability (Bexarotene + Luminespib; first compound 0.8 µM),relative viability (Bexarotene + Luminespib; first compound 2.53 µM),relative viability (Bexarotene + Luminespib; first compound 8 µM),relative viability (Bexarotene + Decitabine; first compound 0.08 µM),relative viability (Bexarotene + Decitabine; first compound 0.253 µM),relative viability (Bexarotene + Decitabine; first compound 0.8 µM),relative viability (Bexarotene + Decitabine; first compound 2.53 µM),relative viability (Bexarotene + Decitabine; first compound 8 µM)
LU99A,0.748,0.703,0.711,0.613,0.699,0.908,0.865,0.898,0.931,0.809,0.268,0.251,0.238,0.291,0.244,1.18,1,0.935,0.909,0.889
LXF-289,0.213,0.195,0.179,0.127,0.155,1.18,1.02,1.02,1.09,1.22,0.8,0.824,0.798,0.874,0.8,0.381,0.3,0.293,0.313,0.323
NCI-H23,0.944,0.594,0.635,0.884,0.691,0.888,1.06,0.921,1.01,0.785,0.229,0.201,0.238,0.234,0.204,0.351,0.322,0.346,0.298,0.329
NCI-H322M,0.282,0.266,0.264,0.261,0.3,1.06,1.14,0.946,0.977,0.978,1.05,0.902,0.862,0.982,0.812,0.68,0.748,0.655,0.678,0.731
NCI-H358,0.224,0.33,0.251,0.234,0.259,0.8,0.929,0.708,0.818,0.722,0.136,0.306,0.325,0.244,0.121,0.212,0.216,0.184,0.222,0.185
NCI-H441,0.857,0.701,1,0.717,0.579,1.01,1.04,1.13,0.841,0.927,0.373,0.384,0.314,0.295,0.377,0.3,0.283,0.236,0.229,0.279
NCI-H460,0.615,0.531,0.565,0.512,0.505,1.1,0.99,0.976,1.02,1.01,0.0252,0.0297,0.0376,0.0318,0.0222,0.581,0.505,0.448,0.499,0.381
NCI-H520,0.223,0.211,0.204,0.215,0.187,0.854,0.678,0.652,0.812,0.727,0.236,0.22,0.229,0.22,0.226,0.499,0.473,0.552,0.52,0.51
NCI-H596,0.671,0.654,0.773,0.907,0.704,0.781,0.61,0.813,0.853,0.858,1.08,1.18,1.01,0.983,0.963,1.11,0.966,0.974,1.09,1.02
NCI-H647,0.173,0.153,0.123,0.0933,0.114,1.32,1.42,1.4,1.32,1.04,0.148,0.176,0.211,0.134,0.11,0.439,0.394,0.412,0.419,0.335
NCI-H650,0.475,0.562,0.441,0.408,0.412,0.974,0.995,0.958,0.991,0.996,0.779,0.828,0.877,0.898,0.742,0.284,0.263,0.328,0.301,0.309
NCI-H661,1.14,0.89,0.837,0.838,0.801,1.02,1.04,0.916,0.967,0.933,0.943,0.9,0.929,0.89,0.89,0.606,0.542,0.559,0.509,0.496
NCI-H727,0.405,0.311,0.388,0.316,0.37,1.09,1.12,0.875,0.859,0.808,0.392,0.685,0.325,0.322,0.372,1.02,0.748,0.826,0.847,0.885
NCI-H838,0.299,0.301,0.339,0.346,0.381,1.14,1.03,1.06,1.05,1.01,0.368,0.377,0.269,0.329,0.321,0.521,0.423,0.499,0.515,0.445
NCI-H1355,0.744,0.814,0.55,0.627,0.707,1,1.09,0.91,1.05,0.947,0.831,0.714,0.668,0.631,0.716,0.379,0.332,0.416,0.388,0.346
NCI-H1395,0.448,0.385,0.367,0.407,0.419,1.07,1.02,1.04,0.949,1.09,0.806,0.631,0.687,0.663,0.749,0.801,0.686,0.72,0.713,0.731

Cell Line,relative viability (Bexarotene + Dasatinib; first compound 0.08 µM),relative viability (Bexarotene + Dasatinib; first compound 0.253 µM),relative viability (Bexarotene + Dasatinib; first compound 0.8 µM),relative viability (Bexarotene + Dasatinib; first compound 2.53 µM),relative viability (Bexarotene + Dasatinib; first compound 8 µM),relative viability (Bexarotene + Foretinib; first compound 0.08 µM),relative viability (Bexarotene + Foretinib; first compound 0.253 µM),relative viability (Bexarotene + Foretinib; first compound 0.8 µM),relative viability (Bexarotene + Foretinib; first compound 2.53 µM),relative viability (Bexarotene + Foretinib; first compound 8 µM),relative viability (Bexarotene + Luminespib; first compound 0.08 µM),relative viability (Bexarotene + Luminespib; first compound 0.253 µM),relative viability (Bexarotene + Luminespib; first compound 0.8 µM),relative viability (Bexarotene + Luminespib; first compound 2.53 µM),relative viability (Bexarotene + Luminespib; first compound 8 µM),relative viability (Bexarotene + Decitabine; first compound 0.08 µM),relative viability (Bexarotene + Decitabine; first compound 0.253 µM),relative viability (Bexarotene + Decitabine; first compound 0.8 µM),relative viability (Bexarotene + Decitabine; first compound 2.53 µM),relative viability (Bexarotene + Decitabine; first compound 8 µM)
NCI-H1437,0.445,0.6,0.567,0.411,0.434,1.26,1.32,1.22,1.23,1.26,1.05,1.07,1.15,1.07,1.1,0.592,0.581,0.556,0.564,0.51
NCI-H1650,0.383,0.38,0.408,0.333,0.296,1.13,0.988,1.09,1.18,1.11,0.195,0.183,0.219,0.225,0.231,0.447,0.453,0.438,0.403,0.45
NCI-H1651,0.518,0.551,0.363,0.458,0.374,0.86,0.98,0.805,0.933,0.84,1.06,0.881,0.938,0.845,0.911,0.77,0.548,0.66,0.638,0.618
NCI-H1666,0.793,0.826,0.783,0.788,0.77,0.974,0.937,0.85,0.867,0.833,0.922,0.978,0.916,0.907,0.816,0.813,0.696,0.773,0.689,0.693
NCI-H1734,0.478,0.484,0.412,0.411,0.46,0.913,0.799,0.928,0.822,0.769,0.2,0.182,0.177,0.172,0.195,0.522,0.461,0.498,0.483,0.441
NCI-H1755,0.436,0.395,0.366,0.403,0.361,0.934,0.953,0.885,0.937,0.852,0.391,0.504,0.679,0.52,0.438,0.783,0.743,0.783,0.778,0.75
NCI-H1793,0.367,0.366,0.409,0.406,0.399,0.732,0.813,0.763,0.629,0.676,0.2,0.152,0.164,0.15,0.335,0.54,0.434,0.563,0.469,0.328
NCI-H1915,0.391,0.319,0.292,0.297,0.297,1.19,1.13,1.1,1.06,1.07,0.805,0.742,0.748,0.714,0.724,0.272,0.259,0.274,0.255,0.23
NCI-H1944,0.24,0.216,0.222,0.221,0.293,1.25,1.09,1.04,1.16,0.965,1.45,0.977,0.959,1.11,0.875,0.493,0.472,0.504,0.464,0.383
NCI-H1975,0.468,0.335,0.391,0.335,0.375,1.11,0.983,1.12,1.04,1.05,0.171,0.159,0.201,0.154,0.215,0.359,0.393,0.443,0.406,0.392
NCI-H1993,0.655,0.573,0.528,0.617,0.613,0.807,0.732,0.768,0.725,0.766,1.09,0.783,0.792,0.859,0.815,0.537,0.484,0.554,0.576,0.608
NCI-H2009,0.323,0.33,0.301,0.322,0.359,1.33,1.34,1.24,1.29,1.19,1.19,1.18,1.12,1.2,1.02,0.404,0.394,0.373,0.404,0.364
NCI-H2023,0.628,0.64,0.561,0.522,0.5,0.841,0.799,0.899,0.775,0.68,0.903,0.86,0.618,0.568,0.547,0.224,0.218,0.214,0.197,0.205
NCI-H2085,0.25,0.2,0.19,0.218,0.241,0.963,0.692,0.804,0.862,0.94,0.451,0.556,0.374,0.457,0.378,0.539,0.545,0.512,0.487,0.536
NCI-H2087,1.02,0.919,0.703,0.843,0.903,1.3,1.1,1.12,0.982,1.03,0.174,0.169,0.175,0.139,0.142,0.303,0.277,0.242,0.227,0.215
NCI-H2126,0.573,0.588,0.586,0.584,0.602,0.971,1.2,1.1,1.22,1.07,0.929,0.843,0.924,0.916,0.823,0.631,0.696,0.575,0.571,0.554
